Source: paper PMC5818615, “Use of HuH6 and other human-derived hepatoma lines for the detection of genotoxins: a new hope for laboratory animals?” (Archives of Toxicology, 2017)
Where two headings read alike, the source gives them in different places.

Assays:
[1] = system: HCC 1.2 cells; conditions: 48 h
Experimental: (§1) The SCGE experiments were conducted as described in an international guideline (Tice et al. [2000]). Reagents for the assays (lysis solution and alkaline electrophoresis buffer) and agarose-coated slides were prepared according to Collins and Dusinska ([2009]).
(§2) Briefly, cells were sub-cultured in 1.0 ml medium in 24–well tissue-culture plates (Sarstedt Inc., Newton, NC, USA). After 24 h, the media were changed and the cells exposed to different concentrations of the test compounds or to the solvent controls (PBS or DMSO). […] To terminate the treatment, the cells were washed twice with PBS (1.0 ml), trypsinized (100 µl T/E per well, 4 min) and then resuspended in 400 µl culture medium containing FBS. Subsequently, the suspensions were transferred to Eppendorf tubes and centrifuged (200g, 5 min). Cell pellets were resuspended in cold PBS.
(§3) In all experiments, acute toxic effects were determined with a CASY® Cell Counter and Analyzer System (Schärfe-System GmbH, Reutlingen, Germany) (Lindl et al. [2005]). SCGE assays were only performed when the viability of the cultures was ≥ 70% (Koppen et al. [2017]). Per experimental point, two cultures were set up in parallel and from each one slide with two separate gels (30,000 cells/gel) was prepared. After unwinding (40 min, pH > 13) and electrophoresis (30 min, 0.75 V/cm, ~ 300 mA, 4 °C, pH > 13), 50 cells were evaluated per gel (200 cells per experimental point). As an endpoint, we determined the tail intensities (“% DNA in tail”) with a computer-aided system Comet Assay IV (Perceptive Instruments, Bury St Edmunds, UK), which is at present the most widely used parameter (Collins et al. [2008]; Moller [2006]). For each gel, the median of the tail intensity was calculated.

[2] = system: Hep3B cells; conditions: Hep3B, 48 h, control 0.92 ± 0.58
Experimental: as §1, §2, §3

[3] = system: HepG2 cells; conditions: 48 h
Experimental: as §1, §2, §3

[4] = system: HepaRG cells; conditions: for % DNA in tail: HepaRG, 48 h, control 2.34 ± 2.92
Experimental: as §1, §2, §3

[5] = system: HuH6 cells; conditions: 48 h
Experimental: as §1, §2, §3

[6] = system: HuH7 cells; conditions: 48 h, control 1.29 ± 1.30
Experimental: as §1, §2, §3

[7] = system: JHH6 cells; conditions: 48 h, control 0.59 ± 0.21
Experimental: as §1, §2, §3

[8] = system: PLC/PRF cells; conditions: PLC/PRF, 48 h, control 2.47 ± 2.08
Experimental: as §1, §2, §3

[9] = system: SK-Hep1 cells; conditions: 48 h, control 0.59 ± 0.24
Experimental: as §1, §2, §3

[10] = system: SNU-398 cells; conditions: 48 h, control 1.02 ± 0.88
Experimental: as §1, §2, §3

[11] = system: SNU-449 cells; conditions: 48 h, control 1.20 ± 1.18
Experimental: as §1, §2, §3

[12] = system: WRL68 cells; conditions: 48 h, control 0.76 ± 0.77
Experimental: as §1, §2, §3

[13] = system: human derived liver cell lines
Experimental: as §1, §2, §3

[14] = ref IARC [1993]; cited from earlier work

Cn1c(N)nc2c3cccnc3ccc21 [IQ, 2-amino-3-methyl-3H-imidazo[4,5-f]quinolone]
% DNA in tail ([1]; HCC 1.2, IQ 50.0 µM, control 2.93 ± 1.40): 1.86 ± 0.44%
% DNA in tail ([1]; HCC 1.2, IQ 100.0 µM, control 2.93 ± 1.40, starred P ≤ 0.05): 7.29 ± 1.87%
% DNA in tail ([2]; IQ 50.0 µM): 0.88 ± 0.71%
% DNA in tail ([2]; IQ 100.0 µM): 1.75 ± 1.45%
% DNA in tail ([3]; HepG2, IQ 50.0 µM, control 2.16 ± 0.54): 1.32 ± 0.91%
% DNA in tail ([3]; HepG2, IQ 100.0 µM, control 2.16 ± 0.54, starred P ≤ 0.05): 5.38 ± 2.02%
Result of SCGE experiments (in words) ([4]; HepaRG cells): negative results
% DNA in tail ([4]; IQ 50.0 µM): 2.39 ± 4.10%
% DNA in tail ([4]; IQ 100.0 µM): 2.38 ± 1.97%
% DNA in tail ([5]; HuH6, IQ 50.0 µM, control 4.01 ± 1.68): 5.91 ± 3.05%
% DNA in tail ([5]; HuH6, IQ 100.0 µM, control 4.01 ± 1.68, starred P ≤ 0.05): 10.82 ± 5.71%
% DNA in tail ([6]; HuH7, IQ 50.0 µM): 2.16 ± 0.91%
% DNA in tail ([6]; HuH7, IQ 100.0 µM): 1.11 ± 0.60%
% DNA in tail ([7]; JHH6, IQ 50.0 µM): 1.29 ± 1.55%
% DNA in tail ([7]; JHH6, IQ 100.0 µM): 0.93 ± 0.67%
% DNA in tail ([8]; IQ 50.0 µM): 5.17 ± 4.50%
% DNA in tail ([8]; IQ 100.0 µM): 2.84 ± 2.65%
% DNA in tail ([9]; SK-Hep1, IQ 50.0 µM): 0.62 ± 0.47%
% DNA in tail ([9]; SK-Hep1, IQ 100.0 µM): 1.43 ± 0.95%
% DNA in tail ([10]; SNU-398, IQ 50.0 µM): 1.42 ± 0.72%
% DNA in tail ([10]; SNU-398, IQ 100.0 µM): 1.20 ± 0.81%
% DNA in tail ([11]; SNU-449, IQ 50.0 µM): 3.67 ± 2.95%
% DNA in tail ([11]; SNU-449, IQ 100.0 µM): 1.46 ± 1.21%
% DNA in tail ([12]; WRL68, IQ 50.0 µM): 1.15 ± 1.44%
% DNA in tail ([12]; WRL68, IQ 100.0 µM): 0.56 ± 0.67%
Number of the twelve lines sensitive towards the compound ([13]; SCGE experiments without exogenous enzyme activation mix): three
Doses required to cause significant effects in SCGE assays ([13]; different hepatic lines, in most cases): ≥ 100 mM
IARC classification [14]: Causes guanine adducts, clear evidence for carcinogenicity in experiments with rodents IARC: Group 2A
